Experimental data reported in a compilation of properties of binary mixtures (doi:10.1016/j.molliq.2019.110987).

Assay: xn = mol fraction of the nth substance listed
Conditions: 100 kPa

CN(C)C=O + CCCC[P+](C)(CCCC)CCCC.COS(=O)(=O)[O-]
x2 = 0
Conditions	speed of sound [m/s]	viscosity [mPa·s]
293.15 K	1484.1	0.867
298.15 K	1468.9	0.813
303.15 K	1447.2	0.764
313.15 K	1410.2	0.684
318.15 K	1391.2	0.663

CCCC[P+](C)(CCCC)CCCC.COS(=O)(=O)[O-] + CN(C)C=O
Conditions	speed of sound [m/s]	viscosity [mPa·s]
293.15 K, x1 = 0.0474	1486.7	1.774
293.15 K, x1 = 0.0765	1492.6	2.681
293.15 K, x1 = 0.1106	1502.8	3.495
293.15 K, x1 = 0.1508	1513.1	5.02
293.15 K, x1 = 0.1991	1518.1	6.59
293.15 K, x1 = 0.2582	1529.5	12.72
293.15 K, x1 = 0.5542	1551.2	145.3
293.15 K, x1 = 0.6717	1554.1	246
293.15 K, x1 = 0.7768	1557.2	368
293.15 K, x1 = 0.8253	1559.8	439
293.15 K, x1 = 0.8837	1560.2	532
293.15 K, x1 = 1	1563.7	729
298.15 K, x1 = 0.0474	1472.5	1.934
298.15 K, x1 = 0.0765	1482.5	3.021
298.15 K, x1 = 0.1106	1491.5	4.201
298.15 K, x1 = 0.1508	1499.4	5.71
298.15 K, x1 = 0.1991	1506.2	9.12
298.15 K, x1 = 0.2582	1511.1	17.12
298.15 K, x1 = 0.3321	1523.3	24.22
298.15 K, x1 = 0.4272	1529.1	41
298.15 K, x1 = 0.5542	1535.5	80.9
298.15 K, x1 = 0.6717	1538.1	164.4
298.15 K, x1 = 0.7768	1540.5	267
298.15 K, x1 = 0.8253	1542.3	315
298.15 K, x1 = 0.8837	1544	389
298.15 K, x1 = 0.9362	1545	445
303.15 K, x1 = 0.0474	1453.5	1.154
303.15 K, x1 = 0.1106	1471.3	3.824
303.15 K, x1 = 0.1508	1479.2	4.91
303.15 K, x1 = 0.1991	1487.8	5.73
303.15 K, x1 = 0.2582	1497.1	11.88
303.15 K, x1 = 0.3321	1503.3	15.34
303.15 K, x1 = 0.4272	1510.1	31.14
303.15 K, x1 = 0.5542	1519.2	44.8
303.15 K, x1 = 0.6717	1520.1	115.1
303.15 K, x1 = 0.7768	1523.5	192.4
303.15 K, x1 = 0.8253	1525.4	233
303.15 K, x1 = 0.9362	1528.2	325
303.15 K, x1 = 1	1529.6	381
308.15 K, x1 = 0.0474	1434.9	2.009
308.15 K, x1 = 0.0765	1444.1	2.042
308.15 K, x1 = 0.1106	1452.2	3.858
308.15 K, x1 = 0.1508	1461.5	4.52
308.15 K, x1 = 0.1991	1470.1	5.96
308.15 K, x1 = 0.2582	1479.6	10.08
308.15 K, x1 = 0.3321	1485.8	13.81
308.15 K, x1 = 0.4272	1495.1	26.52
308.15 K, x1 = 0.5542	1501.1	37.9
308.15 K, x1 = 0.7768	1507	140.5
308.15 K, x1 = 0.8253	1509.1	170.5
308.15 K, x1 = 0.8837	1510.8	201
308.15 K, x1 = 0.9362	1513.8	242
308.15 K, x1 = 1	1514.3	286
313.15 K, x1 = 0.0765	1426.1	2.915
313.15 K, x1 = 0.1106	1433.2	3.012
313.15 K, x1 = 0.1508	1444.1	4.451
313.15 K, x1 = 0.1991	1452.6	5.02
313.15 K, x1 = 0.2582	1460.2	8.85
313.15 K, x1 = 0.3321	1469.2	13.52
313.15 K, x1 = 0.4272	1479.1	–
313.15 K, x1 = 0.5542	1487.8	32.59
313.15 K, x1 = 0.6717	1489.8	66.5
313.15 K, x1 = 0.7768	1491.1	107.4
313.15 K, x1 = 0.8253	1494.8	127.5
313.15 K, x1 = 0.8837	1496.5	152.2
313.15 K, x1 = 0.9362	1497.5	182.7
318.15 K, x1 = 0.0474	1399.2	0.955
318.15 K, x1 = 0.0765	1409.7	1.855
318.15 K, x1 = 0.1106	1416.3	2.982
318.15 K, x1 = 0.1508	1425.5	4.147
318.15 K, x1 = 0.1991	1434.9	6.04
318.15 K, x1 = 0.4272	1463.7	20.74
318.15 K, x1 = 0.5542	1471.8	28.42
318.15 K, x1 = 0.6717	1475.1	–
318.15 K, x1 = 0.7768	1478.2	81.3
318.15 K, x1 = 0.8253	1480.1	106.5
318.15 K, x1 = 0.8837	1482.6	127.4
318.15 K, x1 = 0.9362	1484.1	149.6
318.15 K, x1 = 1	1485.7	169.1
323.15 K, x1 = 0.0474	1382.2	1.897
323.15 K, x1 = 0.0765	1392.5	2.214
323.15 K, x1 = 0.1106	1398.2	2.469
323.15 K, x1 = 0.1991	1417.7	4.5
323.15 K, x1 = 0.2582	1425.1	9.48
323.15 K, x1 = 0.3321	1436.2	14.54
323.15 K, x1 = 0.4272	1445.5	19.56
323.15 K, x1 = 0.5542	1456	25.19
323.15 K, x1 = 0.6717	1461.6	43.1
323.15 K, x1 = 0.7768	1464.9	–
323.15 K, x1 = 0.8253	1466.6	100.4
323.15 K, x1 = 0.9362	1471.7	123
323.15 K, x1 = 1	1472	133.4
